Measured values reported in patent US5610177A, “Acylated amino acids as endothelin antagonists” (Warner-Lambert Company, priority 1994, dated 1997).
Read-outs that look alike come from different tables or passages of the source. Where a SMILES comes first, the peptide text is derived from it. Where no end group is shown, it is not given here. [ ]: non-standard residue; d: D form.

How the values were obtained:
ETA = details: cited from earlier work
ETA receptor [1] = details: conscious rats; cited from earlier work
[2] = tested on: Endothelin receptor subtype-A; details: intravenous infusion, stroke prone spontaneous hypertensive rats; cited from earlier work
[3] = tested on: Endothelin receptor subtype-A; details: intravenous infusion; cited from earlier work
ETA receptor [4] = details: rabbit retinal arteries, i.v.; cited from earlier work
ETA receptor [5] = details: rats, i.v.; cited from earlier work
Endothelin receptor [6] = details: rat model; cited from earlier work
Endothelin receptor [7] = details: i.v., cited from earlier work
[8] = biological target: T1, endothelin receptor of rabbit renal artery vascular smooth muscle cells (Oryctolagus cuniculus, UniProt A5A8K3); assay type: binding; details: [125I]-ET-1 25 pM, 37° C., 2 hours, read-out: IC50 ERBA-A
T1 sequence (A5A8K3 21-427): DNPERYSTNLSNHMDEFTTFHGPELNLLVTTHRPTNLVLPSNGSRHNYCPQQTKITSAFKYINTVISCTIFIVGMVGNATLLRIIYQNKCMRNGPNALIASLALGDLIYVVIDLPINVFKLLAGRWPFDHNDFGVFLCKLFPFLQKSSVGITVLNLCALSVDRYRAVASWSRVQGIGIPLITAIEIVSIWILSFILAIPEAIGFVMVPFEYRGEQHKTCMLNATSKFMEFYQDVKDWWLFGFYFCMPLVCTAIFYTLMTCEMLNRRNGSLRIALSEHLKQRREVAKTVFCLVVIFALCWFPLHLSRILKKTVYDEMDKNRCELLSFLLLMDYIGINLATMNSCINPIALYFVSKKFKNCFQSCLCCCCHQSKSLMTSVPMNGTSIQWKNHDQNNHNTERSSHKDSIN
Excerpt: The compounds of Formula I are valuable antagonists of endothelin.

[9] = biological target: T2, endothelin receptor of rat cerebellar membranes (Rattus norvegicus, UniProt P21451); experiment: Endothelin receptor binding assay-B (ERBA-B), [125I]-ET-1 binding in rat cerebellar membranes; details: [125I]-ET-1 25 pM, 37° C., 2 hours
T2 sequence (P21451 27-442): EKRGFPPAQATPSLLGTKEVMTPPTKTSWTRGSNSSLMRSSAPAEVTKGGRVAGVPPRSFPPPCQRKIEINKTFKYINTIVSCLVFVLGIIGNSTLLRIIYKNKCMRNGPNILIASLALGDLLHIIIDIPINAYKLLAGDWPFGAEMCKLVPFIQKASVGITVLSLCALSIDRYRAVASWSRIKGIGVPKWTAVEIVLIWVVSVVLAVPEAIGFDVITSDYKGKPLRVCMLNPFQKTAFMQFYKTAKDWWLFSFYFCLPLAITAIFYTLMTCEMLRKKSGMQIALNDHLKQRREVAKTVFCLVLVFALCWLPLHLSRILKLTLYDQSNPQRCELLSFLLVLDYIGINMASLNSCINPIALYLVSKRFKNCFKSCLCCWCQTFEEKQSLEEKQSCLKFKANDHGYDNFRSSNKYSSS
Excerpt: The compounds of Formula I are valuable antagonists of endothelin. […] ENDOTHELIN RECEPTOR BINDING […]-1 BINDING IN RAT CEREBELLAR MEMBRANES […] Count filters for radioactivity in gamma counter.

ETB receptors [10] = biological target: T3, ETB receptors (Homo sapiens, UniProt P24530); experiment: HERBA-B, [125I]-ET-1 binding to recombinant human ETB receptor expressed in CHO-K1 cell membranes; parameters: expressed in transfected cells; host or cells: CHO-K1 cells (membranes)
T3 sequence (P24530 27-442): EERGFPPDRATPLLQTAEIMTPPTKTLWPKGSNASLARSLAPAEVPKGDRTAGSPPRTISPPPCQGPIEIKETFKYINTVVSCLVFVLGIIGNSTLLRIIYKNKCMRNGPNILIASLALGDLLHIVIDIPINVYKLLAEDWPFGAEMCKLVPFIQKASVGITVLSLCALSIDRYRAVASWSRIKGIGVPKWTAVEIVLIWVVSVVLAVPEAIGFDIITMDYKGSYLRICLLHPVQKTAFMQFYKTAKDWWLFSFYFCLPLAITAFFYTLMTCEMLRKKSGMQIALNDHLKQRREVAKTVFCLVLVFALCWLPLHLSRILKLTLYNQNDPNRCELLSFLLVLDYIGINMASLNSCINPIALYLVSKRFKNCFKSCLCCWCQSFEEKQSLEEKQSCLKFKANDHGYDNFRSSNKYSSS
Protocol: The compounds of Formula I are valuable antagonists of endothelin. […] The above process has also been modified by using human recombinant CHO-K1 cells. […] The gene for human ETB receptor was cloned and inserted into the pRc-CMW expression vector, then transfected into CHO-K1 cells by electroporation. For binding assays, membranes (0.7 mg protein) of CHO-K1 cells expressing recombinant human ETB receptor were used.

ETB receptors [11] = biological target: T3, ETB receptors; experiment: AAR-B, inhibition of ET-3 stimulated arachidonic acid release in CHO cells expressing recombinant ETB receptors; assay type: cell-based; parameters: expressed in transfected cells; host or cells: Chinese hamster ovary (CHO) cells; details: ET-3 (1.0 nM) stimulated [3H]arachidonic acid release, read-out: IC50 AAR-B (Antagonist)
ETA and ETB receptors [12] = details: cited from earlier work
ETA and ETB receptors [13] = details: rats, cited from earlier work
ETA and ETB receptors [14] = details: rats, cited from earlier work; remark: listed apart in the source
ETA and ETB receptors [15] = details: orally administered; cited from earlier work
endothelin receptor [16] = details: cited from earlier work
[17] = conditions of hypoglycemia; cited from earlier work
liver = details: cited from earlier work
[18] = local intra-arterial administration, rats; cited from earlier work
[19] = intracerebroventricular, rats; cited from earlier work
ETA receptor [20] = details: intraperitoneal, rats; cited from earlier work
endothelin ETA receptor [21] = details: intracisternal, canine subarachnoid hemorrhage model; cited from earlier work
endothelin ETA receptor [22] = details: rats; cited from earlier work
ETB = details: isolated, endothelium-intact porcine pulmonary arteries; cited from earlier work

Cc1noc(NS(=O)(=O)c2cccc3c(N(C)C)cccc23)c1C [5-(Dimethylamino)-N-(3,4-dimethyl-5-isoxazolyl)-1-naphthalenesulfonamide]
oral antihypertensive effect (ETA): oral antihypertensive effect

CC(C)C[C@@H]1NC(=O)[C@@H](C(C)C)NC(=O)[C@@H]2CCCN2C(=O)[C@@H](CC(=O)O)NC(=O)[C@@H](Cc2c[nH]c3ccccc23)NC1=O [BQ-123] (cyclo(L[dW][dD]P[dV]))
antagonism of ET-1 induced pressor response (ETA receptor [1]): effective in antagonizing the ET-1 induced pressor response
blood pressure [2]: decreased blood pressure significantly
prevention of acute hypoxia induced pulmonary hypertension [3]: effective in the prevention of acute hypoxia induced pulmonary hypertension
ET-1 induced vasoconstriction (ETA receptor [4]): blocked
renal vascular resistance (ETA receptor [5]): blocked
acute CsA toxicity (Endothelin receptor [6]): suppressed
mitochondrial Ca2+ accumulation (Endothelin receptor [7]; early phase of ischemic acute renal failure in rats): prevents the mitochondrial [Ca^2+ ] accumulation
protection of proximal tubular cells (Endothelin receptor [7]; ischemic acute renal failure in rats): protects proximal tubular cells from post-ischemic degeneration

C[C@](Cc1c[nH]c2ccccc12)(NC(=O)C(Cc1cccc2ccccc12)Cc1cccc2ccccc12)C(=O)O [Example 1, Bis-(1-naphthylmethyl)acetyl-(α-methyl-D-tryptophan)]
IC50 [8]: 10 µM
IC50 [9]: 0.6 µM
IC50 (ETB receptors [10]): 0.57 µM
IC50 (ETB receptors [11]): 2.5 µM

C[C@@](Cc1c[nH]c2ccccc12)(NC(=O)C(Cc1cccc2ccccc12)Cc1cccc2ccccc12)C(=O)O [Example 8, Bis-(1-naphthylmethyl)acetyl-(α-methyl-L-tryptophan)]
IC50 [8]: > 30 µM
IC50 [9]: 17 µM

COc1cccc(Oc2c(NS(=O)(=O)c3ccc(C(C)(C)C)cc3)ncnc2OCCO)c1 [Ro 46-2005]
ETA/ETB receptor antagonism and selectivity (ETA and ETB receptors [12]): non-selective ETA /ETB antagonists
effect in renal ischemia (ETA and ETB receptors [13]): protective effect for renal vasoconstriction after renal ischemia
effect in renal ischemia (ETA and ETB receptors [13]; listed as RO 46-2005): effective in models of acute renal ischemia
effect in subarachnoid hemorrhage (ETA and ETB receptors [14]): dramatically reduced cerebral vasoconstriction after subarachnoid hemorrhage
effect in subarachnoid hemorrhage (ETA and ETB receptors [14]; listed as RO 46-2005): effective in models of acute renal ischemia and subarachnoid hemorrhage in rats
antihypertensive effect (ETA and ETB receptors [15]): marked antihypertensive effect with a reasonably long duration

COc1ccccc1Oc1c(NS(=O)(=O)c2ccc(C(C)(C)C)cc2)nc(-c2ncccn2)nc1OCCO [Ro 47-0203]
ETA/ETB receptor antagonism and selectivity (ETA and ETB receptors [12]): non-selective ETA /ETB antagonists
blood brain barrier crossing (endothelin receptor [16]; inferred from rabbit subarachnoid hemorrhage model): crosses the blood brain barrier
reversal of vasoconstriction (endothelin receptor [16]; rabbit subarachnoid hemorrhage model): effective in a rabbit subarachnoid hemorrhage model in reversing vasoconstriction

ET-3: one of a family of structurally similar bicyclic peptides (CTCFTYKDKECVYYCHLDIIW; not fully specified (bridges); cysteine pairing not given here; UniProt P14138 97-117, looked up)
striatal damage [17]: accelerate the development of striatal damage

Endothelin
hepatic vasoconstriction and glucose output (liver): sustained vasoconstriction of the hepatic vasculature and a significant increase in hepatic glucose output
small intestinal mucosal damage [18]: induce small intestinal mucosal damage in rats in a dose-dependent manner

Endothelin-1 (CSCSSLMDKECVYFCHLDIIW; not fully specified (bridges); cysteine pairing not given here; UniProt P05305 53-73, looked up) [ET-1]
behavioral effects [19]: evoke several behavioral effects

FR 139317
ETA/ETB receptor antagonism and selectivity (ETA and ETB receptors [12]): potent endothelin ETA receptor antagonist
permeability to proteins, glomerular injury and renal function (ETA receptor [20]): reduced abnormal permeability to proteins and limited glomerular injury and prevented renal function deterioration
vasoconstriction of the basilar artery (endothelin ETA receptor [21]): significantly reduced the vasoconstriction of the basilar artery
ET-1 induced arrhythmia (endothelin ETA receptor [22]): suppressed

N-Acetyl-ET [N-Acetyl-ET [10-21,11,15-Ala]]
vasorelaxation (ETB): caused vasorelaxation
